# Measured values taken from patent publication US20100022584A1, “Modulation of Glutamine Synthetase Activity” (priority 2006, published 2010).
# Where a chain is given by its changes, count along the chain named.
# Experiments:
# [1] = target: T1, glutamine synthetase mutant S52A Y397V (Escherichia coli, UniProt P0A9C5, S53A/Y398V); experiment: HPLC forward-reaction glutamine synthetase assay with serine protease inhibitors; type: biochemical, E. coli; conditions: 1 mM inhibitor; for inhibition of the enzyme (in words): HPLC assays; for % Conversion: glutamine-based divided by ADP-based specific activity
# T1 construct: made in house; host or cells: E. coli YMC11 (glutamine synthetase auxotroph), pBluescript II SK+
# T1 sequence (P0A9C5 2-469 S53A/Y398V limits assumed): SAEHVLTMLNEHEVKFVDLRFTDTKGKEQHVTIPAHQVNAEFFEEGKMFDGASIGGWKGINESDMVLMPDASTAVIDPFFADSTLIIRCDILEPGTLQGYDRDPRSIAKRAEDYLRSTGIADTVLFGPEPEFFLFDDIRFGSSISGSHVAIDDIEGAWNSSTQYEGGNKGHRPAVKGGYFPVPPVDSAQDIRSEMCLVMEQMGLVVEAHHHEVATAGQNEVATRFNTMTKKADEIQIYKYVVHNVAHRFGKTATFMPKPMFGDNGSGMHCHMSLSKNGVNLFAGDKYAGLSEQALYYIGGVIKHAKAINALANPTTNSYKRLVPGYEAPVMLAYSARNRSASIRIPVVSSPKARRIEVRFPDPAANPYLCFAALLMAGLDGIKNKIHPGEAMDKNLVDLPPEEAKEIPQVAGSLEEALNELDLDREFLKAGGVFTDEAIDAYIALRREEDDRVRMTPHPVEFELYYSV
# Method: (§1) This assay was set up to measure glutamine synthetase activity according to the forward reaction, and measures the amount of glutamine formed from […] of L-glutamate in the presence of MnCO3-ATP (the basis of one reaction) and MgATP (the basis of a second reaction). In addition, the amount of ADP formed is also measured in a separate assay, using the same reagents.
# (§2) All enzyme preparations were adjusted to the same concentration of protein, and added to the assay mixture in a volume of 50 μl. The addition of the enzyme started the reaction, which was then allowed to proceed for 1 hour. The reaction was stopped by the addition of 6 μl of a 50% solution of trichloroacetic acid. Each assay was then aliquoted into 4 HPLC vials (150 μl per vial), two of which were assayed for glutamate and glutamine using a Phenomenex Luna 5 μC18 Column on an Agilent 100 HPLC instrument. The ATP/ADP assays were run on a Chromolith Performance RP-18c column also using an Agilent 100 HPLC instrument.
# (§3) As it is believed that two putative catalytic triads, similar to those in the serine proteases, are involved in the reaction mechanism of glutamine synthetase, certain of the mutants were also assayed by HPLC in the presence of the serine protease inhibitors, AEBSF and PMSF, in order to assess the effect that these inhibitors had on the enzyme. The enzymes assessed were the adenylylated WT enzyme, the deadenylylated WT enzyme, and the mutant enzymes S52A, S52A Y397V, S53A, S53A Y397V, S52A S53A and S52A S53A Y397V. The enzymes were pre-incubated for 60 minutes in the presence of 1 mM PMSF or 1 mM AEBSF. A control reaction was set up for each enzyme, which contained no inhibitor. Each enzyme was then added to assays set up as described above. The assay was allowed to proceed for 60 minutes, then stopped by the addition of […] of 50% TCA, after which they were analysed by HPLC. All assays were run in triplicate.
# (§4) In addition to the γ-glutamyl transferase assays, assays were also developed to measure the rate of conversion of ATP and glutamate to ADP and glutamine by HPLC. These were set up as single assays but analysed separately for glutamate and glutamine and ATP and ADP. The conversion rates for glutamate to glutamine, in both the presence of Mn^2+ and Mg^2+ by glutamine synthetase, is referred to as the […] specific activity and is presented in μmoles/min/mg protein. The conversion rates for ATP to ADP, in both the presence of Mn^2+ and Mg^2+ by glutamine synthetase, is referred to as the ADP-based specific activity and is presented in μmoles/min/mg protein. The percentage of conversion was also calculated by dividing the glutamine-based specific activity by the ADP-based specific activity, and this value is interpreted as the ability of the enzyme to complete both steps of the reaction, i.e., glutamate to glutamine and ATP to ADP, at an equivalent level of efficiency.
# [2] = target: T2, deadenylylated WT enzyme, WT (DD) glutamine synthetase (Escherichia coli, UniProt P0A9C5); experiment: as above; type: biochemical, E. coli; conditions: 1 mM inhibitor; for % Reduction in ADP-based Specific Activity / % Reduction in Glutamine-based Specific Activity: 60 min pre-incubation, vs no-inhibitor control, positive = activity increased; for % Conversion: glutamine-based divided by ADP-based specific activity
# T2 construct: made in house; host or cells: E. coli carrying pBSK-ECgln (pBluescript II SK+), continuous culture; YMC11 is the expression strain named for this plasmid
# T2 sequence (P0A9C5 2-469 limits assumed): T1 sequence (P0A9C5 2-469 S53A/Y398V limits assumed) with A52S, V397Y
# Method: as §1, §2, §3, §4
Compound,inhibition of the enzyme (in words) [1],% Conversion ([1]; Mg assay) [%],% Conversion ([1]; Mn assay) [%],% Reduction in ADP-based Specific Activity ([2]; Mg assay) [%],% Reduction in Glutamine-based Specific Activity ([2]; Mg assay) [%],% Conversion ([2]; Mg assay) [%],% Reduction in ADP-based Specific Activity ([2]; Mn assay) [%],% Reduction in Glutamine-based Specific Activity ([2]; Mn assay) [%],% Conversion ([2]; Mn assay) [%]
O=S(=O)(F)Cc1ccccc1 [PMSF],found to inhibit,49,67,−6.07,−16.55,67,−3.53,−17.69,78
NCCc1ccc(S(=O)(=O)F)cc1 [AEBSF],appeared to cause inhibition,,85,−14.98,−8.43,82,−4.73,−2.23,94
